Measured values reported in ChEMBL document CHEMBL4311954, “Synthesis, biological evaluation, and docking studies of new raloxifene sulfonate or sulfamate derivatives as inhibitors of nucleotide pyrophosphatase/phosphodiesterase” (Eur J Med Chem, 2019).
Where a name gives a salt, the structure may show the parent alone.

What was measured:
[1] = target: T1, Ectonucleotide pyrophosphatase/phosphodiesterase family member 1 (Homo sapiens) (UniProt P22413); experiment: Inhibition of human NPP1 expressed in COS-7 cell membranes assessed as reduction in p-nitrophenol production at 100 uM using pNP-TMP as substrate preincubated with enzyme for 15 mins followed by substrate addition and measured after 35 mins relative to control
T1 sequence (whole entry): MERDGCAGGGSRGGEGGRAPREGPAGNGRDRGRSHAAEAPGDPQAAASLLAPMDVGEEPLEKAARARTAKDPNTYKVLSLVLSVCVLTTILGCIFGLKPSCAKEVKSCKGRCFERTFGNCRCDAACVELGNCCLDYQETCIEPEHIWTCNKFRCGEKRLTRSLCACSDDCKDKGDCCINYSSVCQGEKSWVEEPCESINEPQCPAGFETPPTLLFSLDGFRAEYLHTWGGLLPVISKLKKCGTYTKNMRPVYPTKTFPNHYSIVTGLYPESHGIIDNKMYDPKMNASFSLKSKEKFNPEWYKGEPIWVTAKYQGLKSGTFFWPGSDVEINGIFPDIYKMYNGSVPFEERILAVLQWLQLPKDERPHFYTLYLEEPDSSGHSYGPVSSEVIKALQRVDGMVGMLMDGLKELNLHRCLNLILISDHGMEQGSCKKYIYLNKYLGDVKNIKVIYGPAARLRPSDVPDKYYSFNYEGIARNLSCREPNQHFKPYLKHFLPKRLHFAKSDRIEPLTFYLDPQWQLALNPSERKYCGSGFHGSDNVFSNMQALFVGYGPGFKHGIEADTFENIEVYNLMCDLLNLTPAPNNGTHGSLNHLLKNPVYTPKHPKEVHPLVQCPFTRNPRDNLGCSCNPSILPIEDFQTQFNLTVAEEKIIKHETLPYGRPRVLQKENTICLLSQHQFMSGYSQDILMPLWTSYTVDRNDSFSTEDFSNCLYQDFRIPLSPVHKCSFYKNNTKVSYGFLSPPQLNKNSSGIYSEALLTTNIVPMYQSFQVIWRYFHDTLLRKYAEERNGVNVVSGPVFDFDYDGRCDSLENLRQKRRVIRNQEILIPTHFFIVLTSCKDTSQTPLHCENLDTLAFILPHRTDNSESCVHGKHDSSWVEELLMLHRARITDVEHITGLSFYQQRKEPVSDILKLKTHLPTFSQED

[2] = target: T2, Ectonucleotide pyrophosphatase/phosphodiesterase family member 3 (Homo sapiens) (UniProt O14638); experiment: Inhibition of human NPP3 expressed in COS-7 cell membranes assessed as reduction in p-nitrophenol production at 100 uM using pNP-TMP as substrate preincubated with enzyme for 15 mins followed by substrate addition and measured after 35 mins relative to control
T2 sequence (whole entry): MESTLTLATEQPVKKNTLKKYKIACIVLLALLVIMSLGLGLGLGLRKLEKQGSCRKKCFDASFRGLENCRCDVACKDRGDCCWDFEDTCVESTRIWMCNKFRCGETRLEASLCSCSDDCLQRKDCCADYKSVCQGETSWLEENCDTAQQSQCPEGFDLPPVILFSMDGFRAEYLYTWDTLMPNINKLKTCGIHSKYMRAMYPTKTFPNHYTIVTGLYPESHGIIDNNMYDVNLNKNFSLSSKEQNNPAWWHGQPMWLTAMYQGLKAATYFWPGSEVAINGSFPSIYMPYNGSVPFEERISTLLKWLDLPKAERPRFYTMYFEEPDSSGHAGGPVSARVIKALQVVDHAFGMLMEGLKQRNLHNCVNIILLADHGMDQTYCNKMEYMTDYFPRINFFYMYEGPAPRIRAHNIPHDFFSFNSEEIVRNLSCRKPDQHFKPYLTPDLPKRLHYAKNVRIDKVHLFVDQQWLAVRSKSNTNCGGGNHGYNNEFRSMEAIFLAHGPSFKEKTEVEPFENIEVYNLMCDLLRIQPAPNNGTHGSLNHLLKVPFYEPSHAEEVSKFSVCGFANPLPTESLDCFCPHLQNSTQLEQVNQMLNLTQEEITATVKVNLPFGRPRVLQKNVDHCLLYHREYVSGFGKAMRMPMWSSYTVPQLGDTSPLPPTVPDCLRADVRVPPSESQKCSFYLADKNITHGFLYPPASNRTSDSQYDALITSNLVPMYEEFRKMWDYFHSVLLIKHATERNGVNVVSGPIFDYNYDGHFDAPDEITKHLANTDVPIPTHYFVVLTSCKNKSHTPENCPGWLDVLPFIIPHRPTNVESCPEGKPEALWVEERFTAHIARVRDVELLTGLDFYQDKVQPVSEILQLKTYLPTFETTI

A549 [3] = experiment: Antiproliferative activity against human A549 cells assessed as cell viability at 10 uM after 72 hrs by MTT assay relative to control; assay type: functional; conditions: A549, 72 h, read-out: Activity
MCF7 [4] = experiment: Antiproliferative activity against human MCF7 cells assessed as cell viability at 10 uM after 72 hrs by MTT assay relative to control; assay type: functional; conditions: MCF7, 72 h, read-out: Activity
HT-29 [5] = experiment: Antiproliferative activity against human HT-29 cells assessed as cell viability at 10 uM after 72 hrs by MTT assay relative to control; assay type: functional; conditions: HT-29, 72 h, read-out: Activity
[6] = target: T3, Ectonucleotide pyrophosphatase/phosphodiesterase family member 1 (Homo sapiens, UniProt P22413); experiment: Inhibition of human NPP1 expressed in COS-7 cell membranes assessed as reduction in p-nitrophenol production using pNP-TMP as substrate preincubated with enzyme for 15 mins followed by substrate addition and measured after 35 mins
T3 sequence (P22413 whole entry): T1 sequence (whole entry)

A549 [7] = experiment: Antiproliferative activity against human A549 cells assessed as reduction in cell viability after 48 hrs by MTT assay; assay type: functional, cell-based; conditions: A549, 48 h
MCF7 [8] = experiment: Antiproliferative activity against human MCF7 cells assessed as reduction in cell viability after 48 hrs by MTT assay; assay type: functional, cell-based; conditions: MCF7, 48 h
HT-29 [9] = experiment: Antiproliferative activity against human HT-29 cells assessed as reduction in cell viability after 48 hrs by MTT assay; assay type: functional, cell-based; conditions: HT-29, 48 h
[10] = Cytotoxicity against human F180 cells assessed as reduction in cell viability after 48 hrs by MTT assay; assay type: cell-based; conditions: F180, 48 h
[11] = target: T4, Ectonucleotide pyrophosphatase/phosphodiesterase family member 3 (Homo sapiens, UniProt O14638); experiment: Inhibition of human NPP3 expressed in COS-7 cell membranes assessed as reduction in p-nitrophenol production using pNP-TMP as substrate preincubated with enzyme for 15 mins followed by substrate addition and measured after 35 mins
T4 sequence (O14638 whole entry): T2 sequence (whole entry)

[12] = Selectivity index, ratio of IC50 for human F180 cells to IC50 for human HT-29 cells

Row | inhibition [1] [%] | inhibition [2] [%] | IC50 [6] [µM] | IC50 (A549 [7]) [µM] | IC50 (MCF7 [8]) [µM] | IC50 (HT-29 [9]) [µM] | IC50 [11] [µM] | SMILES | viability at 10 µM (A549 [3]) [%] | viability at 10 µM (MCF7 [4]) [%] | viability at 10 µM (HT-29 [5]) [%] | IC50 [10] [µM] | Ratio IC50 [12]
1 | – | 43.7 | 4.24 | > 15 | 3.4 | 1.5 | – | CN(C)S(=O)(=O)Oc1ccc(-c2sc3cc(OS(=O)(=O)N(C)C)ccc3c2C(=O)c2ccc(OCCN3CCCCC3)cc2)cc1 | 91.8 | 58 | 25 | 14 | –
2 | 36 | – | – | 13 | 6 | 1.7 | 1.55 | CNS(=O)(=O)Oc1ccc(-c2sc3cc(OS(=O)(=O)NC)ccc3c2C(=O)c2ccc(OCCN3CCCCC3)cc2)cc1 | 58.9 | 37.2 | 11.5 | > 15 | –
3 | 35.1 | – | – | – | – | – | 1.51 | CCS(=O)(=O)Oc1ccc(-c2sc3cc(OS(=O)(=O)CC)ccc3c2C(=O)c2ccc(OCCN3CCCCC3)cc2)cc1 | 90.2 | 118 | 62.2 | – | –
4 | – | 38.5 | 0.45 | – | – | – | – | Cc1ccc(S(=O)(=O)Oc2ccc(-c3sc4cc(OS(=O)(=O)c5ccc(C)cc5)ccc4c3C(=O)c3ccc(OCCN4CCCCC4)cc3)cc2)cc1 | 95.2 | 116 | 72.4 | – | –

More lines, now with the values behind:

Row | SMILES | inhibition [1] [%] | inhibition [2] [%] | IC50 [6] [µM] | IC50 (A549 [7]) [µM] | IC50 (MCF7 [8]) [µM] | IC50 (HT-29 [9]) [µM] | IC50 [11] [µM] | viability at 10 µM (A549 [3]) [%] | viability at 10 µM (MCF7 [4]) [%] | viability at 10 µM (HT-29 [5]) [%] | IC50 [10] [µM] | Ratio IC50 [12]
5 | O=C(c1ccc(OCCN2CCCCC2)cc1)c1c(-c2ccc(OS(=O)(=O)c3cccc4cccnc34)cc2)sc2cc(OS(=O)(=O)c3cccc4cccnc34)ccc12 | 28.7 | 42.5 | – | – | – | – | – | 99.2 | 129 | 110 | – | –
6 | O=C(c1ccc(OCCN2CCCCC2)cc1)c1c(-c2ccc(OS(=O)(=O)C3CCCCC3)cc2)sc2cc(OS(=O)(=O)C3CCCCC3)ccc12 | 30 | – | – | – | – | – | 0.49 | 104 | 136 | 109 | – | –
7 | O=C(c1ccc(OCCN2CCCCC2)cc1)c1c(-c2ccc(OS(=O)(=O)c3ccc(C(F)(F)F)cc3)cc2)sc2cc(OS(=O)(=O)c3ccc(C(F)(F)F)cc3)ccc12 | – | – | 4.01 | > 15 | > 15 | 4 | 0.23 | 67.7 | 41 | 17.4 | > 15 | –
8 | CC(C)(C)c1ccc(S(=O)(=O)Oc2ccc(-c3sc4cc(OS(=O)(=O)c5ccc(C(C)(C)C)cc5)ccc4c3C(=O)c3ccc(OCCN4CCCCC4)cc3)cc2)cc1 | – | – | 0.29 | 6.7 | 3.2 | 1.4 | 0.71 | 7.3 | 12.1 | 9.9 | 11.8 | 8.43
9 | COc1ccc(S(=O)(=O)Oc2ccc(-c3sc4cc(OS(=O)(=O)c5ccc(OC)cc5)ccc4c3C(=O)c3ccc(OCCN4CCCCC4)cc3)cc2)cc1 | – | – | 0.42 | – | – | – | 1.24 | 99.4 | 127 | 89.3 | – | –
10 | O=C(c1ccc(OCCN2CCCCC2)cc1)c1c(-c2ccc(OS(=O)(=O)c3ccc(F)cc3)cc2)sc2cc(OS(=O)(=O)c3ccc(F)cc3)ccc12 | – | – | 8.88 | – | – | – | 1.81 | 105 | 115 | 108 | – | –
11 | O=C(c1ccc(OCCN2CCCCC2)cc1)c1c(-c2ccc(O)cc2)sc2cc(O)ccc12 [RALOXIFENE HYDROCHLORIDE] | – | – | – | > 15 | > 15 | > 15 | – | 87 | 77.7 | 107 | > 15 | –
